According to PMC6471242, “Dereplication by High-Performance Liquid Chromatography (HPLC) with Quadrupole-Time-of-Flight Mass Spectroscopy (qTOF-MS) and Antiviral Activities of Phlorotannins from Ecklonia cava” (Marine Drugs, 2019):
“Also recorded” adds a separate entry of the source.

Legend:
Cytotoxicity assay (MTT) = settings: dog
neuraminidase = assay: Western blot of viral protein synthesis in H1N1-infected MDCK cells, neuraminidase; settings: 5, 10, 20, and 40 μM, 24 h
hemagglutinin = assay: Western blot of viral protein synthesis in H1N1-infected MDCK cells, hemagglutinin; settings: 5, 10, 20, and 40 μM, 24 h
in vitro = settings: dog

Row | SMILES | CC50 at 48 h (Cytotoxicity assay (MTT)) | inhibition of neuraminidase expression (viral protein synthesis, Western blot) (neuraminidase) | inhibition of hemagglutinin expression (viral protein synthesis, Western blot) (hemagglutinin) | CC50 at 48 h (in vitro)
1 | Oc1cc(O)cc(Oc2c(O)cc(O)c3c2Oc2c(O)cc(Oc4c(O)cc(Oc5c(O)cc(O)c6c5Oc5c(O)cc(O)cc5O6)cc4O)cc2O3)c1 [Compound 11, Dieckol] | > 100 µM |  |  | 
2 | Oc1cc(O)cc(Oc2c(O)cc(O)c3c2Oc2c(O)cc4oc5c(Oc6cc(O)cc(O)c6)c(O)cc(O)c5c4c2O3)c1 [Compound 12, Phlorofucofuroeckol A] | > 100 µM | decreased the expression of neuraminidase and hemagglutinin at 10 μM; also recorded: strongest inhibition capacity was observed at 40 µM; also recorded: strong inhibitory effects | decreased the expression of neuraminidase and hemagglutinin at 10 μM; also recorded: strongest inhibition capacity was observed at 40 µM; also recorded: strong inhibitory effects | 
3 | Oc1cc(O)c2c(c1)Oc1c(O)cc(O)cc1O2 [Compound 13, Dibenzo[1,4]dioxine-2,4,7,9-tetraol] | > 100 µM |  |  | 
4 | Oc1cc(O)c2oc3cc(O)c4oc5cc(O)cc(O)c5oc4c3oc2c1 [Compound 14, Dioxinodehydroeckol] |  |  |  | > 100 µM
